Tests used:
[1] = system: GALAP (Galium); assay: Postemergence herbicidal evaluation; type: in vivo, Galium aparine; details: postemergence
Summary of the method: (§1)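 Two-week-old seedlings sprayed with compound in 50/50 acetone/water plus 0.5% TWEEN 20, at about 0.0156 to 0.500 kg/ha, nozzle at 40 psi. Kept in greenhouse; rated visually 4-5 weeks after treatment on a 0-9 scale versus control, repeat tests averaged.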

[2] = system: CYPSE (Flatsedge); assay: Preemergence weed control under flooded paddy conditions; type: in vivo, Cyperus serotinus; details: rated 3-4 weeks after treatment
Summary of the method: (§2)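 Flooded-pot preemergence screen with silt loam and seeds in the upper 0.5 cm. Dose about 0.0313 to 0.500 kg/ha, delivered into flood water; visual 0-9 score after 3 to 4 weeks.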

[3] = system: ORYSAT (Rice, Tebonnet); assay: Postemergence herbicidal evaluation; type: in vivo, Oryza sativa, (L.) Tebonnet; details: postemergence
Summary of the method: as §1

[4] = system: GALAP (Galium); assay: Preemergence herbicidal evaluation; type: in vivo, Galium aparine; details: rated 4-5 weeks after treatment, rating scale 0-9
Summary of the method: (§3)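 Herbicidal effect scored visually, 0-9, at 4 to 5 weeks against a control; compound applied preemergence by aqueous acetone spray to seeded soil at about 0.0156 to 0.500 kg/ha.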

[5] = system: CASOB (Sicklepod); assay: Preemergence herbicidal evaluation; type: in vivo, Cassia obtusifolia; details: rated 4-5 weeks after treatment, rating scale 0-9
Summary of the method: as §3

[6] = system: CYPIR (Rice Flatsedge); assay: Preemergence weed control under flooded paddy conditions; type: in vivo, Cyperus iria; details: rated 3-4 weeks after treatment
Summary of the method: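 First, seeds or propagules go into the top 0.5 cm of silt loam; next, water is held 1.5 to 3 cm over the soil; then compound (50/50 acetone/water) is pipetted into it at about 0.0313 to 0.500 kg/ha; finally plants are rated visually 0-9 after three to four weeks.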

[7] = system: SETVI (Foxtail, Green); assay: Postemergence herbicidal evaluation; type: in vivo, Setaria viridis; details: postemergence
Summary of the method: as §1

[8] = system: ECHCG (Barnyardgrass); assay: Postemergence herbicidal evaluation; type: in vivo, Echinochloa crus-galli; details: postemergence
Summary of the method: as §1

[9] = system: CHEAL (Lambsquarters, Common); assay: Postemergence herbicidal evaluation; type: in vivo, Chenopodium album; details: postemergence
Summary of the method: as §1

[10] = system: CASOB (Sicklepod); assay: Postemergence herbicidal evaluation; type: in vivo, Cassia obtusifolia; details: postemergence
Summary of the method: as §1

[11] = system: AMBEL (Ragweed, Common); assay: Postemergence herbicidal evaluation; type: in vivo, Ambrosia artemisifolia; details: postemergence
Summary of the method: as §1

[12] = system: SAGPY (Arrowhead (Pygmaea)); assay: Preemergence weed control under flooded paddy conditions; type: in vivo, Sagittaria pygmaea; details: rated 3-4 weeks after treatment
Summary of the method: as §2

[13] = system: ZEAMX (Corn, Field); assay: Preemergence herbicidal evaluation; type: in vivo, Zea mays; details: rated 4-5 weeks after treatment, rating scale 0-9
Summary of the method: as §3

[14] = system: GLXMAW (Soybean, Williams); assay: Postemergence herbicidal evaluation; type: in vivo, Glycine max, (L.) Merr. cv Williams; details: postemergence
Summary of the method: as §1

**Q.** For `Cn1c(C(F)(F)F)cc(=O)n(-c2cc(N=C3SCC(=O)N3Cc3ccc(Cl)cc3)c(Cl)cc2F)c1=O` [Compound 145, 3-{4-Chloro-5-{[3-(p-chlorobenzyl)-4-oxo-2-thiazolidinylidene]amino}-2-fluorophenyl}-1-methyl-6-(trifluoromethyl)-2,4(1H,3H)-pyrimidinedione], which “herbicidal rating GALAP” value ([1]; rate 0.0156 kg/ha) is on record?
**A.** The value was 1.0.

**Q.** What about the “herbicidal rating GALAP” value ([1]; rate 0.0313 kg/ha) of the same compound?
**A.** Its value is 4.0.

**Q.** And the “herbicidal rating GALAP” value ([1]; rate 0.0625 kg/ha)?
**A.** The value was 7.0.

**Q.** And the “herbicidal effect rating, CYPSE” value ([2]; 0.1250 kg/ha)?
**A.** Its value is 9.0.

**Q.** And the “herbicidal effect rating, CYPSE” value ([2]; 0.2500 kg/ha)?
**A.** Its value is 9.0.

**Q.** And the “herbicidal rating ORYSAT” value ([3]; rate 0.0156 kg/ha)?
**A.** Its value is 2.5.

**Q.** And the “herbicidal rating ORYSAT” value ([3]; rate 0.0313 kg/ha)?
**A.** The value was 2.5.

**Q.** And the “herbicidal rating ORYSAT” value ([3]; rate 0.0625 kg/ha)?
**A.** The value was 3.5.

**Q.** And the “Preemergence herbicidal rating GALAP” value ([4]; rate 0.0156 kg/ha)?
**A.** The value was 0.0.

**Q.** And the “Preemergence herbicidal rating GALAP” value ([4]; rate 0.0313 kg/ha)?
**A.** The value was 0.0.

**Q.** What about the “Preemergence herbicidal rating GALAP” value ([4]; rate 0.0625 kg/ha) of the same compound?
**A.** Its value is 0.0.

**Q.** What about the “Preemergence herbicidal rating GALAP” value ([4]; rate 0.1250 kg/ha) of the same compound?
**A.** The value was 1.0.

**Q.** And the “Preemergence herbicidal rating GALAP” value ([4]; rate 0.2500 kg/ha)?
**A.** Its value is 3.0.

**Q.** What about the “Preemergence herbicidal rating CASOB” value ([5]; rate 0.0156 kg/ha) of the same compound?
**A.** Its value is 1.0.

**Q.** What about the “Preemergence herbicidal rating CASOB” value ([5]; rate 0.0313 kg/ha) of the same compound?
**A.** Its value is 1.0.

**Q.** What about the “Preemergence herbicidal rating CASOB” value ([5]; rate 0.0625 kg/ha) of the same compound?
**A.** Its value is 6.0.

**Q.** What about the “Preemergence herbicidal rating CASOB” value ([5]; rate 0.1250 kg/ha) of the same compound?
**A.** The value was 1.0.

**Q.** And the “Preemergence herbicidal rating CASOB” value ([5]; rate 0.2500 kg/ha)?
**A.** Its value is 7.0.

**Q.** And the “herbicidal effect rating, CYPIR” value ([6]; 0.0313 kg/ha)?
**A.** Its value is 4.0.

**Q.** And the “herbicidal effect rating, CYPIR” value ([6]; 0.0625 kg/ha)?
**A.** Its value is 5.0.

**Q.** And the “herbicidal effect rating, CYPIR” value ([6]; 0.1250 kg/ha)?
**A.** The value was 7.0.

**Q.** And the “herbicidal effect rating, CYPIR” value ([6]; 0.2500 kg/ha)?
**A.** Its value is 9.0.

**Q.** And the “herbicidal rating SETVI” value ([7]; rate 0.0156 kg/ha)?
**A.** The value was 1.0.

**Q.** What about the “herbicidal rating SETVI” value ([7]; rate 0.0313 kg/ha) of the same compound?
**A.** The value was 3.0.

**Q.** And the “herbicidal rating SETVI” value ([7]; rate 0.0625 kg/ha)?
**A.** Its value is 5.0.

**Q.** And the “herbicidal rating ECHCG” value ([8]; rate 0.0156 kg/ha)?
**A.** Its value is 2.0.

**Q.** And the “herbicidal rating ECHCG” value ([8]; rate 0.0313 kg/ha)?
**A.** Its value is 3.0.

**Q.** And the “herbicidal rating ECHCG” value ([8]; rate 0.0625 kg/ha)?
**A.** The value was 3.0.

**Q.** What about the “herbicidal rating CHEAL” value ([9]; rate 0.0156 kg/ha) of the same compound?
**A.** The value was 5.0.

**Q.** What about the “herbicidal rating CHEAL” value ([9]; rate 0.0313 kg/ha) of the same compound?
**A.** The value was 9.0.

**Q.** And the “herbicidal rating CHEAL” value ([9]; rate 0.0625 kg/ha)?
**A.** Its value is 9.0.

**Q.** And the “herbicidal rating CASOB” value ([10]; rate 0.0156 kg/ha)?
**A.** The value was 1.0.

**Q.** And the “herbicidal rating CASOB” value ([10]; rate 0.0313 kg/ha)?
**A.** Its value is 2.0.

**Q.** What about the “herbicidal rating CASOB” value ([10]; rate 0.0625 kg/ha) of the same compound?
**A.** Its value is 5.0.

**Q.** And the “herbicidal rating AMBEL” value ([11]; rate 0.0156 kg/ha)?
**A.** The value was 9.0.

**Q.** And the “herbicidal rating AMBEL” value ([11]; rate 0.0313 kg/ha)?
**A.** Its value is 9.0.

**Q.** What about the “herbicidal rating AMBEL” value ([11]; rate 0.0625 kg/ha) of the same compound?
**A.** The value was 9.0.

**Q.** What about the “herbicidal effect rating, SAGPY” value ([12]; 0.0313 kg/ha) of the same compound?
**A.** Its value is 0.0.

**Q.** What about the “herbicidal effect rating, SAGPY” value ([12]; 0.0625 kg/ha) of the same compound?
**A.** Its value is 2.0.

**Q.** And the “herbicidal effect rating, SAGPY” value ([12]; 0.1250 kg/ha)?
**A.** Its value is 5.0.

**Q.** What about the “herbicidal effect rating, SAGPY” value ([12]; 0.2500 kg/ha) of the same compound?
**A.** The value was 5.0.

**Q.** And the “Preemergence herbicidal rating ZEAMX” value ([13]; rate 0.0156 kg/ha)?
**A.** Its value is 0.0.

**Q.** And the “Preemergence herbicidal rating ZEAMX” value ([13]; rate 0.0313 kg/ha)?
**A.** Its value is 0.0.

**Q.** What about the “Preemergence herbicidal rating ZEAMX” value ([13]; rate 0.0625 kg/ha) of the same compound?
**A.** The value was 0.0.

**Q.** And the “Preemergence herbicidal rating ZEAMX” value ([13]; rate 0.1250 kg/ha)?
**A.** Its value is 1.0.

**Q.** And the “Preemergence herbicidal rating ZEAMX” value ([13]; rate 0.2500 kg/ha)?
**A.** Its value is 2.0.

**Q.** And the “herbicidal rating GLXMAW” value ([14]; rate 0.0156 kg/ha)?
**A.** Its value is 4.5.

**Q.** What about the “herbicidal rating GLXMAW” value ([14]; rate 0.0313 kg/ha) of the same compound?
**A.** The value was 5.0.

**Q.** And the “herbicidal rating GLXMAW” value ([14]; rate 0.0625 kg/ha)?
**A.** Its value is 5.5.

Source: patent US20020137929A1, “1 - (3-heterocyclylphenyl) isothiourea, -isourea, -guanidine and -amidine herbicidal agents” (Intellectual Property Department, BASF Aktiengesellschaft, priority 1998, published 2002)
